Consider 39 molecules from patent US7125903B1 (Aventis Pharmaceuticals Inc., priority 1999, dated 2006).

Counter-ions that a name gives are not always drawn.

One data set concerns the target T1, human D4 receptor (D4.2 sub-type) (Homo sapiens, UniProt P21917, DEL265-296).
T1 construct: expressed in transfected cells
T1 sequence (P21917 with tags, fused parts or gaps DEL265-296): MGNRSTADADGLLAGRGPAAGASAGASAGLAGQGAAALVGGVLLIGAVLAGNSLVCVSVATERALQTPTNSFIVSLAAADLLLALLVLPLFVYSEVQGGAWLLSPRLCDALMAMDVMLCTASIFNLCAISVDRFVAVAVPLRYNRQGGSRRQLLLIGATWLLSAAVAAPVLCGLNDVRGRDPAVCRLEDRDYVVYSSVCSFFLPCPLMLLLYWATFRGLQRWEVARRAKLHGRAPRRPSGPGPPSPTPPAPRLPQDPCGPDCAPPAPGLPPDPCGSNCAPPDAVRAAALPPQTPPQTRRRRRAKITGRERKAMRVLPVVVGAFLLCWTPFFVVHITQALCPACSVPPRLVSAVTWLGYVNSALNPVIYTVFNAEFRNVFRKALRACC
Briefly: D4 receptor binding assay (3H-spiperone displacement). Conditions: 1 μM test compound, inhibition of 3H-spiperone binding; read-out: D4 RBA % Inhib. @ 1 μM. The method, then: D4 receptor-binding affinities of the compounds were evaluated according to their ability to reduce binding of ^3H-spiperone as compared to the reference compound clozapine. The potency of the test compound to reduce ^3H-spiperone binding directly correlated to its binding affinity for the receptor.
[…] (human embryonic kidney) cells stably transfected with human D4 receptor (D4.2 sub-type) were grown in NUNC cell factories for 5 days (75% confluency) without a media change and removed with versene (approximately 19 mg of cells per cell factory tray). The cells were then centrifuged in a Sorval centrifuge for 10 min, 5000 rpm (GS3 rotor) and the pellets quickly frozen in liquid nitrogen and stored at −80° C. until used in binding assay. When used in the assay, cells were thawed on ice for 20 min and then 10 mL of incubation buffer (50 mM Tris, 1 mM EDTA, 4 mM MgCl2, 5 mM KCl, 1.5 mM CaCl2, 120 mM NaCl, pH 7.4) was added. The cells were then vortexed to resuspend pellet and homogenized with a Kinematica, CH-6010 Kriens-LU, homogenizer for 15 seconds at setting 7. Concentration of receptor protein was determined using the Pierce BCA assay.
The incubation was started by the addition of 100 μl (50 μg protein) membrane homogenate to a solution of 300 μl incubation buffer and 100 μl (0.25 nM final conc.) ^3H-spiperone (90 Ci/mmol, Amersham, diluted in borosilicate glass vial) in 96-well polypropylene plates (1 mL per well). The plates were vortexed and incubated at room temperature for 90 minutes. The binding reaction was stopped by filtering using a Packard Harvester. The samples were filtered under vacuum over glass fibre filter plates (Whatman GF/B) presoaked for 2 hours in 0.3% polyethylenimine (PEI) in 50 mM Tris buffer (pH 7.4). The filters were then washed 6 times with 7 mL ice cold 50 mM Tris buffer (pH 7.4). The filter plates were dried overnight and 35 μl of Microscint-O (Packard) was added. The plates were sealed and counted in the Packard Top Count (3 minutes per well).
The incubation was started by the addition of 100 μl (50 μg protein) membrane homogenate to a solution of 200 μl incubation buffer, 100 μl ^3H-spiperone (90 Ci/mmol, Amersham, diluted in borosilicate glass vial to 0.25 nM final conc.) and 100 μl (30 μM final conc.) of fresh dopamine (Research Biochemicals Inc., light protected and dissolved in incubation buffer) in 96-well polypropylene plates (1 mL per well). The plates were vortexed and incubated at room temperature for 90 minutes at which time the binding reaction was stopped by filtering. The filters were washed and counted using the same procedure as in the total binding assay described above to give the nonspecific binding value (NSB).
The incubation was started by the addition, in 96-well polypropylene plates (1 mL per well), of 100 μl (50 μg protein) membrane homogenate to a solution of 200 μl incubation buffer, 100 μl (0.25 nM final conc.) ^3H-spiperone (90 Ci/mmol, Amersham, diluted in borosilicate glass vial) and 100 μl of test compound that was prepared from 1 mM stock dissolved in DMSO and stored at −20° C. in polypropylene cryogenic storage vials until dilution in incubation buffer in 96-well polypropylene plates. The plates were vortexed and incubated at room temperature for 90 minutes at which time the binding reaction was stopped by filtering. The filters were washed and counted using the same procedure as in the total binding assay described above to give the displacement binding value (BD).
The test compounds were initially assayed at 1 and 0.1 μM and then at a range of concentrations chosen such that the middle dose would cause about 50% inhibition of ^3H-spiperone binding. Specific binding in the absence of test compound (B0) was the difference of total binding (BT) minus non-specific binding (NSB) and similarly specific binding (in the presence of test compound) (B) was the difference of displacement binding (BD) minus non-specific binding (NSB). […]
As to `Cn1nc(-c2cccc(OC[C@H](O)CN3CCc4ccccc4C3)c2)c2sccc21` [Example 99], the inhibition at 1 µM stood at 95%. Consider `OC(COc1cccc(-c2noc3ccsc23)c1)CN1CCc2ccccc2C1` (racemic) [Compound 1, (±)-1-(3,4-dihydro-1H-isoquinolin-2-yl)-3-[3-(thieno[2,3-d]isoxazol-3-yl)phenoxy]-2-propanol hydrochloride], for which the inhibition at 1 µM was 58%.

For the molecule `O[C@@H](COc1cccc(-c2noc3ccsc23)c1)CN1CCC(O)(c2ccc(Cl)cc2)CC1` [Example 90], the inhibition at 1 µM was determined as 59%.

`O[C@@H](COc1cccc(-c2noc3ccsc23)c1)CN1CCN(Cc2ccc3c(c2)OCO3)CC1` [Example 35]: the inhibition at 1 µM amounted to 57%.

For the molecule `O[C@@H](COc1cccc(-c2noc3ccsc23)c1)CN1CCCCC1` [Example 98], the inhibition at 1 µM was 85%.

On to `Cn1nc(-c2cccc(OC[C@H](O)CN3CCC(C(=O)c4ccc(F)cc4)CC3)c2)c2sccc21` [Example 102], for which the inhibition at 1 µM was found to be 97%. Turning to `O[C@H](CNCc1ccco1)COc1ccc(-c2noc3ccsc23)cc1` [Example 42], the inhibition at 1 µM came out at 44%. Still for that read-out and setting: with `C[C@H](NC[C@](C)(O)COc1cccc(-c2noc3ccsc23)c1)c1ccccc1` [Example 56] the figure was 93%; with `O[C@H](CNCc1ccsc1)COc1ccc(-c2noc3ccsc23)cc1` [Example 41], 62%; with `Cn1nc(-c2cccc(OC[C@H](O)CN3CCN(c4ncccn4)CC3)c2)c2sccc21` [Example 101], 89%. Turning to `O[C@H](CNCC1CCCCC1)COc1cccc(-c2noc3ccsc23)c1` [Example 92], the inhibition at 1 µM worked out at 94%. Take `C[C@@H](NC[C@](C)(O)COc1cccc(-c2noc3ccsc23)c1)c1ccccc1` [Example 55]: the inhibition at 1 µM amounted to 72%. Turning to `C[C@](O)(CNCc1cccc2ccccc12)COc1cccc(-c2noc3ccsc23)c1` [Example 57], the inhibition at 1 µM was 96%. As for `Cn1nc(-c2cccc(OC[C@H](O)CN3CCC(n4c(=O)[nH]c5ccccc54)CC3)c2)c2sccc21` [Example 103], the inhibition at 1 µM stood at 91%.

As for `Cn1nc(-c2cccc(OC[C@H](O)CN3CCN(c4ccccc4)CC3)c2)c2sccc21` [Example 100], the inhibition at 1 µM was found to be 90%.

The data set is the same for the next values; noted with them: 3H-spiperone 0.25 nM, membranes of HEK 298 cells with human D4.2; Cheng-Prusoff from IC50; read-out: D4 RBA Ki.
For orientation: Ki means the equilibrium dissociation constant of an inhibitor or competing ligand from its target. Consider `CN(Cc1ccccc1)C[C@](C)(O)COc1cccc(-c2noc3ccsc23)c1` [Example 66], for which the Ki was determined as 90 nM. In the case of `C[C@@](O)(CNCc1cccc2ccccc12)COc1cccc(-c2noc3ccsc23)c1` [Example 21], the Ki came out at 55 nM. The same measure, in the same setting: in the case of `CO[C@H](CNCc1ccccc1)COc1cccc(-c2noc3ccsc23)c1` [Example 39] it was 26 nM. Regarding `O[C@H](CNCc1cccc2ccccc12)COc1cccc(-c2noc3ccsc23)c1` [Example 10], the inhibition constant (Ki) turned out to be 103 nM.

For the molecule `O[C@@H](COc1cccc(-c2noc3ccsc23)c1)CN1CCN(c2ccc(Cl)cc2)CC1` [Compound 7, (2R)-1-[4-(4-chlorophenyl)piperazin-1-yl]-3-(3-thieno[2,3-d]isoxazol-3-yl-phenoxy)propan-2-ol hydrochloride], the Ki amounted to 29.6 nM. As for `C[C@@](O)(CNCc1cccs1)COc1cccc(-c2noc3ccsc23)c1` [Compound 5 (maleate), (2R)-2-methyl-1-(3-thieno[2,3-d]isoxazol-3-yl-phenoxy)-3-[thienophen-2-ylmethyl)-amino-propan-2-ol maleate], the inhibition constant Ki is 59.2 nM. As to `O[C@H](CNCc1cccs1)COc1ccc(-c2noc3ccsc23)cc1` [Example 43], the Ki was 171 nM. Consider `C[C@@](O)(CNCc1cccs1)COc1cccc(-c2noc3ccsc23)c1` [Compound 5 (freebase)], for which the Ki worked out at 26 nM. For `O[C@H](CNC1Cc2ccccc2C1)COc1cccc(-c2noc3ccsc23)c1` [Compound 91 (HCl), (2R)-1-(indan-2-ylamino)-3-(3-thieno[2,3-d]isoxazol-3-yl-phenoxy)-propan-2-ol], the Ki was determined as 17 nM.

With `O[C@@H](COc1cccc(-c2noc3ccsc23)c1)CN1C2CCC1CC(c1noc3ccccc13)C2` (stereo partly drawn) [Example 75], the Ki is 57 nM. With `COc1ccccc1N1CCN(C[C@](C)(O)COc2cccc(-c3noc4ccsc34)c2)CC1` [Example 67], the Ki is 19 nM.

Turning to `COc1ccccc1N1CCN(C[C@@H](O)COc2cccc(-c3noc4ccsc34)c2)CC1` [Compound 8], the Ki is 1.7 nM. Consider `COc1ccccc1N1CCN(C[C@@H](O)COc2ccc(-c3noc4ccsc34)cc2)CC1` [Example 45], for which the Ki amounted to 80 nM. For the molecule `O[C@H](CNC1Cc2ccccc2C1)COc1cccc(-c2noc3ccsc23)c1` [Compound 91 (base), (2R)-1-(indan-2-ylamino)-3-(3-thieno[2,3-d]isoxazol-3-yl-phenoxy)-propan-2-ol], the Ki stood at 13 nM.

With `O[C@H](CNC1CCc2ccccc21)COc1cccc(-c2noc3ccsc23)c1` (stereo partly drawn) [Example 93], the Ki came out at 16 nM. On to `C[C@@](O)(COc1cccc(-c2noc3ccsc23)c1)CN1CCN(c2ccccc2C#N)CC1` [Example 68], for which the Ki stood at 29 nM.

With `O[C@H](CNCc1ccco1)COc1cccc(-c2noc3ccsc23)c1` [Example 25], the Ki turned out to be 57 nM. Turning to `C[C@@](O)(CNCc1ccco1)COc1cccc(-c2noc3ccsc23)c1` [Example 17], the inhibition constant Ki stood at 45 nM.

Turning to `CN(Cc1ccccc1)C[C@@H](O)COc1cccc(-c2noc3ccsc23)c1` [Compound 2], the Ki was determined as 106 nM.

Consider `O[C@@H](COc1cccc(-c2noc3ccsc23)c1)CN1CCN(c2ccccc2C(F)(F)F)CC1` [Example 36], for which the Ki amounted to 84 nM.

For the molecule `O[C@@H](COc1cccc(-c2noc3ccsc23)c1)CN1CCN(c2nsc3ccccc23)CC1` [Example 76], the inhibition constant (Ki) stood at 6 nM.

Test system in the next data set: not given
Assay: not given
Conditions: not given
The melting point is the temperature, or range, at which the solid turns liquid. In turn, `C[C@@](O)(CNCc1cccs1)COc1cccc(-c2noc3ccsc23)c1.O=C(O)/C=C\C(=O)O` [Example 27] registered a melting point of 120 to 121 °C. Still for that read-out and setting: with `O[C@@H](COc1cccc(-c2noc3ccsc23)c1)CN1CCN(c2n[nH]c3cc(F)ccc23)CC1` [Example 11, (2R)-1-[4-(6-fluoro-1H-indazol-3-yl)-piperazin-1-yl]-3-(3-thieno[2,3-d]isoxazol-3-yl-phenoxy)-propan-2-ol] the figure was 97 to 99 °C. Molecule `COc1ccc2[nH]nc(N3CCN(C[C@@H](O)COc4cccc(-c5noc6ccsc56)c4)CC3)c2c1` [Example 12, (2R)-1-[4-(5-methoxy-1H-indazol-3-yl)-piperazin-1-yl]-3-(3-thieno[2,3-d]isoxazol-3-yl-phenoxy)-propan-2-ol] showed a melting point of 84 to 86 °C.
